ChEMBL document CHEMBL4476887, “Lysyl oxidase-like 2 inhibitors and uses thereof” (2018)

Target: T1, Lysyl oxidase homolog 2 (Homo sapiens, UniProt Q9Y4K0)
T1 sequence (Q9Y4K0 whole entry): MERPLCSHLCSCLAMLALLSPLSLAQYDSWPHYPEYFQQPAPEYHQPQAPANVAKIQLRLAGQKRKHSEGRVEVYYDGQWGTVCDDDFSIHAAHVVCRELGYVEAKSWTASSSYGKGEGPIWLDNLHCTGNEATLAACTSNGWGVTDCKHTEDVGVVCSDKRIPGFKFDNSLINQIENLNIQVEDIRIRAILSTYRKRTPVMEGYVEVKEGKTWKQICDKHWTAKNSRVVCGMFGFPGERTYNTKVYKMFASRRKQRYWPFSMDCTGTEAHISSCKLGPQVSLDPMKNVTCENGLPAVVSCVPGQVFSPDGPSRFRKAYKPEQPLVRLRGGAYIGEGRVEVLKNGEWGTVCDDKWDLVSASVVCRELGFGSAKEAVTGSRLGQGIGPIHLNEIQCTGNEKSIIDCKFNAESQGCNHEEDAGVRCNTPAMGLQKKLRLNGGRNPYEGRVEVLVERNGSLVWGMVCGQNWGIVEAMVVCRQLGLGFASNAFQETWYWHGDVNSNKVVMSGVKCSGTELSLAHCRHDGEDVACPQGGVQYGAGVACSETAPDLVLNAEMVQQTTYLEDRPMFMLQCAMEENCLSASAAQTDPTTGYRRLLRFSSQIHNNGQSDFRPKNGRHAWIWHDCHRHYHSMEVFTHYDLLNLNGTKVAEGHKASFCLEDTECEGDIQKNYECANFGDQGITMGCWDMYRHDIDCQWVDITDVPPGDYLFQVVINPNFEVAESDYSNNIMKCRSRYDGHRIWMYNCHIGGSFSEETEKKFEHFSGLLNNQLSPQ
Experiment: Inhibition of human LOXL2 expressed in CHO cells incubated for 2 hrs followed by 1,5-Diaminopentane addition by Amplex Red fluorescence based assay
Assay type: cell-based

NCCc1nc(-c2ccccc2)cs1
IC50: 300 to 1000 nM

NCc1nc2ccccc2s1
IC50: < 300 nM

NCc1cc2ccccc2s1
IC50: 300 to 1000 nM

NCCc1nc2ccccc2s1
IC50: < 300 nM

NCc1nc2ccccc2[nH]1
IC50: < 300 nM

NCc1cc2cc(Br)ccc2o1
IC50: > 1000 nM

NCCc1nc2ccc(F)cc2[nH]1
IC50: > 1000 nM

NCc1cnccn1
IC50: < 300 nM

NCc1cc2ccc(-c3cnc4ccccc4c3)cc2c(=O)[nH]1
IC50: < 300 nM

NCCc1nc2cccc(Cl)c2o1
IC50: < 300 nM

NCCc1cc2ccccc2o1
IC50: > 1000 nM

NCc1cc(Oc2cccc(C(=O)Nc3ccccc3)c2)n2nccc2n1
IC50: 300 to 1000 nM

NCCc1nc2cc(Cl)ccc2s1
IC50: < 300 nM

NCc1cc2ccc(-c3cncc(C(=O)Nc4ccccc4)c3)cc2s1
IC50: < 300 nM

NCCc1cc2ccccc2[nH]1
IC50: > 1000 nM

NCCc1cc2ccccc2s1
IC50: > 1000 nM

Cc1cc(Br)cc2cc(CN)oc12
IC50: < 300 nM

CC(C)(C)c1ccc2sc(CN)cc2c1
IC50: < 300 nM

NCc1cc2ccc(Br)cc2c(=O)[nH]1
IC50: < 300 nM

NCc1cc2cc(-c3cccnc3)ccc2[nH]1
IC50: < 300 nM

NCc1nc2cc(Cl)ccc2[nH]1
IC50: < 300 nM

COc1ncccc1-c1ccc2[nH]c(CN)cc2c1
IC50: 300 to 1000 nM

NCCc1nc2cc(F)ccc2s1
IC50: < 300 nM

NCCc1nc2cc(Cl)ccc2o1
IC50: < 300 nM

NCc1cc2ccc(-c3ccc(C(=O)Nc4ccccc4)nc3)cc2s1
IC50: < 300 nM

COc1ccc2[nH]c(CN)cc2c1
IC50: 300 to 1000 nM

Cn1cc(-c2ccc3[nH]c(CN)cc3c2)cn1
IC50: 300 to 1000 nM

Cc1c(CN)oc2ccc(F)cc12
IC50: > 1000 nM

NCCc1nc2cc(Cl)ccc2[nH]1
IC50: > 1000 nM

NCc1ccnc(Oc2cccc(C(=O)Nc3ccccc3)c2)n1
IC50: 300 to 1000 nM

NCc1cc2ccncc2[nH]1
IC50: < 300 nM

NCc1cnnc(Oc2cccc(C(=O)Nc3ccccc3)c2)c1
IC50: < 300 nM

NCc1cc2c(cn1)ncn2-c1cccc(C(=O)Nc2ccccc2)c1
IC50: < 300 nM

NCCc1nn2cnnc2s1
IC50: > 1000 nM

NCc1cc2cc(C3CC3)ccc2s1
IC50: < 300 nM

NCc1cc2cc(-c3ccc(OCc4ccccc4)nc3)ccc2[nH]1
IC50: 300 to 1000 nM

NCc1cc2cc(-c3cncc(O)c3)ccc2[nH]1
IC50: 300 to 1000 nM

NCc1nc2cc3ccccc3cc2[nH]1
IC50: < 300 nM

NCc1cc2ccccc2c(=O)[nH]1
IC50: 300 to 1000 nM

NCc1cc2ccc(C#Cc3ccccc3)cc2c(=O)[nH]1
IC50: < 300 nM

NCc1cc2ccc(Br)cc2s1
IC50: < 300 nM

Cn1c(CN)cc2ccccc21
IC50: > 1000 nM

NCC1=CC(=O)c2ccccc2C1=O
IC50: < 300 nM

NCc1nc2cc(Cl)ccc2s1
IC50: 300 to 1000 nM

NCc1cc(=O)[nH]c2ccccc12
IC50: > 1000 nM

NCc1ccnnc1
IC50: 300 to 1000 nM

NCCc1nc2ccccc2o1
IC50: 300 to 1000 nM

NCc1cc(Nc2cccc(C(=O)Nc3ccccc3)c2)n2ccnc2n1
IC50: < 300 nM

NCc1nc2ccccc2o1
IC50: > 1000 nM

NCc1cc2ccc(-c3cncc(C(=O)NCc4ccccc4)c3)cc2s1
IC50: < 300 nM

NCc1cc2cc(-c3cccnc3)ccc2s1
IC50: < 300 nM

NCc1cc2cc(F)ccc2[nH]1
IC50: > 1000 nM

NCc1cc2c(cn1)ncn2Cc1cccc(C(=O)Nc2ccccc2)c1
IC50: > 1000 nM

NCc1cccnn1
IC50: < 300 nM

Cc1c(F)ccc2cc(CN)[nH]c12
IC50: > 1000 nM

NCc1ccc2[nH]cnc2c1
IC50: > 1000 nM

NCc1sc2ccccc2c1Cl
IC50: 300 to 1000 nM

NCc1cc2ncccc2[nH]1
IC50: < 300 nM

NCc1cc(=O)c2cc(Br)ccc2s1
IC50: < 300 nM

NCc1cc2cc(F)ccc2s1
IC50: < 300 nM

NCc1nc2cc(Br)cnc2[nH]1
IC50: < 300 nM

C#Cc1ccc2cc(CN)[nH]c(=O)c2c1
IC50: < 300 nM

NCc1cc(O)n2nccc2n1
IC50: 300 to 1000 nM

NCc1cc2cc(-c3ccc(Oc4ccccc4)nc3)ccc2[nH]1
IC50: < 300 nM

COc1ccc(-c2ccc3[nH]c(CN)cc3c2)cn1
IC50: 300 to 1000 nM

NCc1cc2ccc(-n3cc(Br)cn3)cc2c(=O)[nH]1
IC50: < 300 nM

NCc1ccc2ncccc2c1
IC50: > 1000 nM

NCc1cc2cc(I)ccc2[nH]1
IC50: < 300 nM

NCc1cc2cc(-c3cncc4ccccc34)ccc2[nH]1
IC50: < 300 nM

NCCc1nc(-c2ccncc2)cs1
IC50: 300 to 1000 nM

Cn1cnc2ccc(-c3ccc4[nH]c(CN)cc4c3)cc21
IC50: < 300 nM

NCc1cc2ccc(-c3cccnc3)cc2s1
IC50: < 300 nM

NCc1cc2cc(-c3ccc4nccn4c3)ccc2[nH]1
IC50: < 300 nM

COC(=O)c1cncc(-c2ccc3[nH]c(CN)cc3c2)c1
IC50: < 300 nM

NCc1cc2cc(Cl)ccc2[nH]1
IC50: 300 to 1000 nM

Cc1ccc2[nH]c(CN)cc2c1
IC50: 300 to 1000 nM

NCc1cc2ccccc2o1
IC50: 300 to 1000 nM

NCc1ccc2[nH]ccc2n1
IC50: > 1000 nM

COc1ccc2cc(CN)[nH]c(=O)c2c1
IC50: < 300 nM

NCc1cc2ccc(-c3ccc(F)cc3)cc2c(=O)[nH]1
IC50: < 300 nM

NCc1cc2cc(Br)ccc2s1
IC50: < 300 nM

NCCc1nc2ccccc2[nH]1
IC50: > 1000 nM

NCc1cc2cc(-c3ccc(F)cc3)ccc2[nH]1
IC50: < 300 nM

NCc1cc2cc(-c3cnc4ccccc4c3)ccc2[nH]1
IC50: < 300 nM

CC(C)(C)c1ccc2oc(CN)nc2c1
IC50: < 300 nM

NCc1cc2cc(Br)ccc2[nH]1
IC50: < 300 nM

NCc1cc(Oc2cccc(C(=O)Nc3ccccc3)c2)n2ccnc2n1
IC50: < 300 nM

NCc1cc2occc2s1
IC50: > 1000 nM

NCc1nc2ncccc2[nH]1
IC50: < 300 nM

NCc1cc2ccc(-c3ccccc3)cc2c(=O)[nH]1
IC50: < 300 nM

CC(CN)c1nc2ccccc2s1 (racemic)
IC50: 300 to 1000 nM

NCC(O)c1cc2ccccc2s1 (racemic)
IC50: > 1000 nM

NCc1cc2ccccc2[nH]1 [2-INDOLYLMETHANAMINE]
IC50: 300 to 1000 nM
